In ChEMBL document CHEMBL1141170, “Rational approach to discover multipotent anti-Alzheimer drugs” (J Med Chem, 2005):

Key:
[1] = species: Homo sapiens; assay: Percentage increase of intracellular reactive oxygen species in neuronal cells at 0 uM; format: functional
[2] = species: Homo sapiens; assay: Percentage increase of intracellular reactive oxygen species in neuronal cells at 1 uM; format: functional
[3] = species: Homo sapiens; assay: Percentage increase of intracellular reactive oxygen species in neuronal cells at 5 uM; format: functional
[4] = species: Homo sapiens; assay: Percentage increase of intracellular reactive oxygen species in neuronal cells at 10 uM; Cytotoxicity; format: functional
[5] = species: Homo sapiens; assay: Percentage increase of intracellular reactive oxygen species in neuronal cells at 50 uM; Cytotoxicity; format: functional
[6] = species: Homo sapiens; assay: Percentage increase of intracellular reactive oxygen species in neuronal cells at 0.5 uM; format: functional
[7] = species: Homo sapiens; assay: Percentage increase of intracellular reactive oxygen species in neuronal cells at 0.1 uM; format: functional
[8] = molecular target: Cholinesterase (Homo sapiens, UniProt P06276)
Description: Inhibitory concentration against human recombinant butyrylcholinesterase

[9] = molecular target: Acetylcholinesterase (Homo sapiens, UniProt P22303)
Description: Inhibitory concentration against human recombinant acetylcholinesterase

[10] = species: Homo sapiens; assay: Percentage increase of intracellular reactive oxygen species in neuronal cells at 10 uM; format: functional
[11] = species: Homo sapiens; assay: Percentage increase of intracellular reactive oxygen species in neuronal cells at 50 uM; format: functional

Sequence of Cholinesterase (P06276 whole entry): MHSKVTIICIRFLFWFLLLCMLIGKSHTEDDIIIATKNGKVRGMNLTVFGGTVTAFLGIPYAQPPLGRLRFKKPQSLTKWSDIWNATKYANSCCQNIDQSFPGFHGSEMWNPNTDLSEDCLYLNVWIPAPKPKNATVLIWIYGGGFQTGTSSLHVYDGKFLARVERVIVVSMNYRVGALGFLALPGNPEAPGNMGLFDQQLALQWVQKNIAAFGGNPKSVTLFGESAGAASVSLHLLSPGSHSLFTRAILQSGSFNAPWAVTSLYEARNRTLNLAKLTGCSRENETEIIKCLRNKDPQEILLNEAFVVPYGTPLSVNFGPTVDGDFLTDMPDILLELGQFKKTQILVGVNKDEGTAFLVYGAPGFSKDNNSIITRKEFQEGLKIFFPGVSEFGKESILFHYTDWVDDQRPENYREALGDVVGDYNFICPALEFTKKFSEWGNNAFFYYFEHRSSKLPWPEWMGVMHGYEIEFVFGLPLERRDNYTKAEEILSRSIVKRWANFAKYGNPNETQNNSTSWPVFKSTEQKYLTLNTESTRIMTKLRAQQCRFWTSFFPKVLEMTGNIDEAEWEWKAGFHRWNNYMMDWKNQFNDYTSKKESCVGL
Sequence of Acetylcholinesterase (P22303 whole entry): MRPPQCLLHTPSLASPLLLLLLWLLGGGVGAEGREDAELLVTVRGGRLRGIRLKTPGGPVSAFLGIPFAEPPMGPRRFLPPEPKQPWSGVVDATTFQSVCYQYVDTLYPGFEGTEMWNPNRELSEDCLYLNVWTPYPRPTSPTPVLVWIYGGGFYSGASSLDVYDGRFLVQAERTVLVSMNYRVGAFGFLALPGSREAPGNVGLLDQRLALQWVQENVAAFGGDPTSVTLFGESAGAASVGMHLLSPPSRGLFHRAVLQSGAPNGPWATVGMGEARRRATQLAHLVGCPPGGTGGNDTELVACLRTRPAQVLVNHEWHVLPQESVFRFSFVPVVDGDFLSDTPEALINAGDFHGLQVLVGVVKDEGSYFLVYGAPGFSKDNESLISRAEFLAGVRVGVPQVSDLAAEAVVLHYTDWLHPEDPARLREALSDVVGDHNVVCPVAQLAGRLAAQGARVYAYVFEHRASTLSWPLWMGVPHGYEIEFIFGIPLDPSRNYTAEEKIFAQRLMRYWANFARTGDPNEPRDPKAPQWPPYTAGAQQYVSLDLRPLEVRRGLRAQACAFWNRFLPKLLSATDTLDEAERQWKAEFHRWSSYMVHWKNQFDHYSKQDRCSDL

Row | Structure (SMILES) | Activity [1] | Activity [2] | Activity [3] | Activity [4] | Activity [5] | Activity [6] | Activity [7] | IC50 [8] | IC50 [9] | Activity [10] | Activity [11]
1 | NCCCNc1c2c(nc3cc(Cl)ccc13)CCCC2 | 86% | 96.67% | 82.5% | Toxic | Toxic | 99.67% | 99.5% | 2580 nM |  |  | 
2 | Nc1c2c(nc3cc(Cl)ccc13)CC(CNC(=O)CCCCC1CCSS1)CC2 (configuration not stated) |  |  |  |  |  |  |  | 329 nM | 1090 nM |  | 
3 | O=C(CCCCC1CCSS1)NCCCNc1c2c(nc3cc(Cl)ccc13)CCCC2 (racemic) [LIPOCRINE] | 86% | 77% | 61.67% |  |  | 95% | 88.75% |  |  | 51.25% | 30.5%
